According to PubChem BioAssay (NCI):
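Exposure lasted 48 hours, with cells grown in 96-well plates and compounds tested at five concentrations. GI50: concentration for 50% inhibition of growth. Definition used: TGI = concentration required for complete inhibition of growth.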

What was measured:
Assay in all cases: NCI-60 cell line screen, 48 h
UACC-62 melanoma = system: UACC-62 melanoma
SF-295 CNS = system: SF-295 CNS
COLO 205 colon = system: COLO 205 colon
ACHN renal = system: ACHN renal
SK-MEL-2 melanoma = system: SK-MEL-2 melanoma
MOLT-4 leukemia = system: MOLT-4 leukemia
CAKI-1 renal = system: CAKI-1 renal
T-47D breast = system: T-47D breast
MDA-N = system: MDA-N
MCF7 breast = system: MCF7 breast
MDA-MB-435 = system: MDA-MB-435

Row | Compound | TGI (UACC-62 melanoma) [µM] | TGI (SF-295 CNS) [µM] | TGI (COLO 205 colon) [µM] | TGI (ACHN renal) [µM] | TGI (SK-MEL-2 melanoma) [µM] | TGI (MOLT-4 leukemia) [µM] | TGI (CAKI-1 renal) [µM] | TGI (T-47D breast) [µM] | TGI (MDA-N) [µM] | TGI (MCF7 breast) [µM] | TGI (MDA-MB-435) [µM] | GI50 (UACC-62 melanoma) [µM] | GI50 (CAKI-1 renal) [µM] | GI50 (T-47D breast) [µM] | GI50 (SF-295 CNS) [µM] | GI50 (ACHN renal) [µM] | GI50 (MOLT-4 leukemia) [µM] | GI50 (MDA-MB-435) [µM]
1 | COc1ccc(CCN2CCC(C#N)(c3ccc(OC)c(OC)c3)CC2)cc1OC | > 100 | > 100 | > 100 | > 100 | > 100 | > 100 |  |  |  |  |  |  |  |  |  |  |  | 
2 | Cc1ccc2c(ccc3c[n+]4ccccc4c(C)c32)c1 |  | 27.2 | 3.84 | 39 | 11.6 | > 100 | 65.5 | 12.2 | > 100 | 15.6 | 17.1 |  |  |  |  |  |  | 
3 | O=C(Cc1ccccc1)N/N=C(/CCN1CCCC1)CC(c1ccccc1)c1c(O)c2ccccc2oc1=O (centres undefined) | > 100 |  | 57.5 | > 100 | > 100 | > 100 | > 100 |  | > 100 | > 100 | > 100 |  |  |  |  |  |  | 
4 | CC1C2CC(C(C3C(=O)C4CC3C(C)(C)C4C)C2=O)C1(C)C (centres undefined) | > 100 | > 100 | > 100 | > 100 |  | > 100 | > 100 | > 100 | > 100 | > 100 | > 100 |  |  |  |  |  |  | 
5 | COc1ccc2c(c1)c(Cc1c(C)n(C)c3ccc(OC)cc13)c(C)n2C | > 100 | > 100 | > 100 | > 100 | > 100 | > 100 | > 100 |  |  |  |  |  |  |  |  |  |  | 
6 | CSC1=N/C(=C\c2cccs2)C(=O)N1CN1CCCCC1 | > 100 | > 100 | > 100 | > 100 | > 100 | > 100 |  |  | > 100 | > 100 | > 100 |  |  |  |  |  |  | 
7 | CC(=O)Nc1c(C)cc(OCC(=O)O)cc1C | > 100 | > 100 | > 100 | > 100 | > 100 |  | > 100 | > 100 | > 100 | > 100 | > 100 |  |  |  |  |  |  | 
8 | C/C(C=O)=C1\C(O)C[C@]1(C)C1CC(C)(C)CC1O (some centres undefined) |  | > 100 | > 100 | > 100 | > 100 | > 100 | > 100 |  |  |  |  |  |  |  |  |  |  | 
9 | O=C(CCN(CCO)CCO)Nc1ccc2c(c1)C(=O)c1ccc(NC(=O)CCN(CCO)CCO)cc1C2=O | 27.8 | > 100 | 29.5 | > 100 | 16.8 | 44.9 | 32.2 |  |  |  |  |  |  |  |  |  |  | 
10 | C1CSCC2(COC2)CS1 |  | > 100 | > 100 | > 100 |  | > 100 |  |  | > 100 | > 100 | > 100 |  |  |  |  |  |  | 
11 | CCOc1ccc(NCC(=O)N2CC(=O)Nc3ccccc32)cc1 | > 100 | > 100 | > 100 | > 100 | > 100 | > 100 | > 100 |  |  |  |  |  |  |  |  |  |  | 
12 | CCOC(=O)[C@H]1C[C@@H](C(=O)c2ccccc2)N2N=C(c3ccc(Br)cc3)C=C[C@H]12 | > 100 | > 100 | > 100 | > 100 | > 100 | > 100 | > 100 | > 100 |  | > 100 | > 100 |  |  |  |  |  |  | 
13 | CSc1nc(=S)[nH]c2n[nH]c(C)c12 | > 100 |  | > 100 |  | > 100 | > 100 | > 100 | > 100 | > 100 | > 100 | > 100 |  |  |  |  |  |  | 
14 | COc1ccc(NS(=O)CCc2ccccc2)cc1 (centres undefined) |  | > 100 | > 100 | > 100 |  | > 100 | > 100 |  | > 100 | > 100 | > 100 |  |  |  |  |  |  | 
15 | CCn1c(=O)c2c(=O)[nH][nH]c2c2ccccc21 |  | > 100 | > 100 | > 100 |  | > 100 |  |  | > 100 | > 100 | > 100 |  |  |  |  |  |  | 
16 | Clc1cc(Cl)cc(N2N=C(c3cccc(Nc4ccncc4)c3)CC2c2ccccc2)c1 (centres undefined) | 3.24 | 3.08 |  | 3.89 |  | 5.95 | 3.36 | 4.2 |  |  | 3.36 | 1.74 | 1.57 | 1.73 | 1.65 | 1.9 | 2.29 | 1.72
17 | CC1CN=C(NCc2ccccc2)S1 (centres undefined) | > 100 |  |  | > 100 | > 100 | > 100 |  | > 100 | > 100 | > 100 | > 100 |  |  |  |  |  |  | 
18 | COC(=O)n1c(=O)nc2c3c(ncn21)Oc1c(c(-c2ccccc2)nn1-c1ccccc1)C3c1ccc(Cl)cc1 (centres undefined) | 3.6 | 3.04 | 2.76 | 3.21 | 3.07 |  | 2.98 | 3.23 | 3.01 | 3.06 | 3.02 |  |  |  |  |  |  | 
19 | CC(SC1=CC(=O)c2c(Cl)ccc(O)c2C1=O)C(=O)O (centres undefined) |  | 33.3 | 45.1 |  | 33.6 | 57.7 |  |  |  |  |  |  |  |  |  |  |  | 
20 | c1ccc(C2=NN(c3ccccc3)C3(S2)SC(c2ccccc2)(c2ccccc2)c2ccccc23)cc1 (centres undefined) | > 100 | > 100 | > 100 | > 100 | > 100 | > 100 | > 100 |  |  |  |  |  |  |  |  |  |  | 
21 | CC(=O)Nc1ccc(-c2nnc(SCC(=O)Nc3ccccc3Cl)o2)cc1 |  | > 100 | > 100 | > 100 | > 100 | > 100 | > 100 |  |  |  |  |  |  |  |  |  |  | 
22 | CCCOC(=O)c1cc(C(=CCC[C@H]2CC[C@@]3(C)[C@@H](CC[C@@H]4[C@@H]3CC[C@]3(C)[C@@H](C(C)CCCC(C)C)CC[C@@H]43)C2)c2cc(Cl)c(O)c(C(=O)OCCC)c2)cc(Cl)c1O (some centres undefined) | > 50 |  | > 50 |  | > 50 | > 50 | > 50 | > 50 | > 50 |  | > 50 |  |  |  |  |  |  | 
23 | Cc1nc2ccccc2nc1NS(=O)(=O)c1ccc(N)cc1 | > 100 | > 100 | > 100 | > 100 | > 100 | > 100 | > 100 |  |  |  |  |  |  |  |  |  |  | 
24 | Cc1ccc(S(=O)(=O)N/N=C2\C(=O)C3CC2C(Cl)C3Cl)cc1 (centres undefined) | > 100 | > 100 | > 100 | > 100 |  | > 100 | > 100 |  |  |  |  |  |  |  |  |  |  | 
25 | O=S(=O)(CC1=NC2C=CC=CC2N=C1)NCc1ccccc1 (centres undefined) | > 100 | > 100 | > 100 | > 100 | > 100 | > 100 | > 100 |  |  |  |  |  |  |  |  |  |  | 
